Tests used:
PKC-ε [1] = biological target: T1, PKC-ε (Homo sapiens, UniProt Q02156); assay: PKC-ε activation: incorporation of 32P-inorganic phosphate from gamma-32P-ATP; format: biochemical
T1 sequence (Q02156 1-737): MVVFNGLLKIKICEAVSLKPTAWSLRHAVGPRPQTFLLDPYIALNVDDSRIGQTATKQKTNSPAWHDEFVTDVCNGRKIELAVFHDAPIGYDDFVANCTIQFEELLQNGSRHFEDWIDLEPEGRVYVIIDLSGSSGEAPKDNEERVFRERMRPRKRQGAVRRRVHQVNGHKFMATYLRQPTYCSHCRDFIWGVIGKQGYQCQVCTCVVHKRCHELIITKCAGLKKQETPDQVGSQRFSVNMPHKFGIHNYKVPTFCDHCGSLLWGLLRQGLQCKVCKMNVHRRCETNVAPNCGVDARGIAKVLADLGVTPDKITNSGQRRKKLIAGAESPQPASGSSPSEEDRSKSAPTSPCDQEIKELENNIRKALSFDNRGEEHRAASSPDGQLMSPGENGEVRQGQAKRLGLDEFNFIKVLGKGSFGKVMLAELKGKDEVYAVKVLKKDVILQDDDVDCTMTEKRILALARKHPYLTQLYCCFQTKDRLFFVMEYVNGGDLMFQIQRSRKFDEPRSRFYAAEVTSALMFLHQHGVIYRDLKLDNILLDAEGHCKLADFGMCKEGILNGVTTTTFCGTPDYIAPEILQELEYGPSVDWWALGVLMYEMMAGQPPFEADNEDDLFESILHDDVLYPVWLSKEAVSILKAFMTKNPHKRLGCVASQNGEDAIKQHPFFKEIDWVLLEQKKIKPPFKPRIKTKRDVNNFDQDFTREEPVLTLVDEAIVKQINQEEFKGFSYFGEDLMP
Description: Example 4: PKC-ε activation by DCPLA-EtF3 versus DCPLA methyl ester. […] Sen A, Alkon D L, Nelson T J, J. Biol. Chem. 287(19): 15947-58 (2012). PKC-ε activation by DCPLA-EtF3 was measured by measuring the incorporation of 32P-inorganic phosphate from gamma-32P-ATP by recombinant human PKC-ε.
Example 5: PKC-ε activation by 1,1,1-trifluoropropan-2-yl DCPLA. PKC-ε activation by 1,1,1-trifluoropropan-2-yl DCPLA was measured by measuring the incorporation of 32P-inorganic phosphate from gamma-32P-ATP by recombinant human PKC-ε. […] Activation started at 0.01 nM and was biphasic, consistent with a low and a high affinity binding site for DCPLA.

PKC-ε [2] = biological target: T1, PKC-ε; settings: earlier research, cited from earlier work

## CCCCCC1CC1CC1CC1CCCCCCCC(=O)OCC(F)(F)F (stereo not drawn) [DCPLA-EtF3, DCPLA-trifluoroethyl ester]
PKC-ε [1]; FIG. 1
  concentration of peak PKC-ε activation: 0.1 to 1 nM
PKC-ε [1]; FIG. 1, comparison in words
  extent of PKC-ε activation compared with DCPLA methyl ester: approximately the same extent of activation as DCPLA methyl ester
PKC-ε [1]; FIG. 1, more potent than DCPLA methyl ester
  potency as PKC-ε activator relative to DCPLA methyl ester: approximately 1000 times
PKC-ε [1]; comparison in words
  potency compared with bryostatin-1: approximately equal to that of bryostatin-1

## CCCCCC1CC1CC1CC1CCCCCCCC(=O)OC (stereo not drawn) [DCPLA methyl ester]
PKC-ε [2]
  concentration of maximum PKC-ε activation: 0.1 µM
PKC-ε [2]; more potent than unesterified DCPLA
  potency as PKC-ε activator relative to unesterified DCPLA: approximately 100 times

## CCCCCC1CC1CC1CC1CCCCCCCC(=O)OC(C)C(F)(F)F (stereo not drawn) [1,1,1-trifluoropropan-2-yl DCPLA]
PKC-ε [1]; FIG. 2
  concentration at which PKC-ε activation started: 10 pM
PKC-ε [1]; FIG. 2, comparison in words
  potency compared to unmodified DCPLA: superior potency
PKC-ε [1]; FIG. 2, consistent with a low and a high affinity binding site
  shape of PKC-ε activation response: biphasic

— patent US12016837B2, “Halogenated esters of cyclopropanated unsaturated fatty acids for use in the treatment of neurodegenerative diseases” (Synaptogenix, Inc., priority 2013, dated 2024)
